Reference: the supplement of paper PMC12076712
± gives the standard deviation of the averaged measurements.

Key:
Assay in all cases: pIC50, kinobeads binding competition
Details in all cases: cell material: Jurkat lysate
HIPK3 = HIPK3 (UniProt Q9H422)
CAMKK2 = CAMKK2 (UniProt Q96RR4)
ULK1 = target: T1, ULK1 (UniProt O75385)
T1 sequence (whole entry): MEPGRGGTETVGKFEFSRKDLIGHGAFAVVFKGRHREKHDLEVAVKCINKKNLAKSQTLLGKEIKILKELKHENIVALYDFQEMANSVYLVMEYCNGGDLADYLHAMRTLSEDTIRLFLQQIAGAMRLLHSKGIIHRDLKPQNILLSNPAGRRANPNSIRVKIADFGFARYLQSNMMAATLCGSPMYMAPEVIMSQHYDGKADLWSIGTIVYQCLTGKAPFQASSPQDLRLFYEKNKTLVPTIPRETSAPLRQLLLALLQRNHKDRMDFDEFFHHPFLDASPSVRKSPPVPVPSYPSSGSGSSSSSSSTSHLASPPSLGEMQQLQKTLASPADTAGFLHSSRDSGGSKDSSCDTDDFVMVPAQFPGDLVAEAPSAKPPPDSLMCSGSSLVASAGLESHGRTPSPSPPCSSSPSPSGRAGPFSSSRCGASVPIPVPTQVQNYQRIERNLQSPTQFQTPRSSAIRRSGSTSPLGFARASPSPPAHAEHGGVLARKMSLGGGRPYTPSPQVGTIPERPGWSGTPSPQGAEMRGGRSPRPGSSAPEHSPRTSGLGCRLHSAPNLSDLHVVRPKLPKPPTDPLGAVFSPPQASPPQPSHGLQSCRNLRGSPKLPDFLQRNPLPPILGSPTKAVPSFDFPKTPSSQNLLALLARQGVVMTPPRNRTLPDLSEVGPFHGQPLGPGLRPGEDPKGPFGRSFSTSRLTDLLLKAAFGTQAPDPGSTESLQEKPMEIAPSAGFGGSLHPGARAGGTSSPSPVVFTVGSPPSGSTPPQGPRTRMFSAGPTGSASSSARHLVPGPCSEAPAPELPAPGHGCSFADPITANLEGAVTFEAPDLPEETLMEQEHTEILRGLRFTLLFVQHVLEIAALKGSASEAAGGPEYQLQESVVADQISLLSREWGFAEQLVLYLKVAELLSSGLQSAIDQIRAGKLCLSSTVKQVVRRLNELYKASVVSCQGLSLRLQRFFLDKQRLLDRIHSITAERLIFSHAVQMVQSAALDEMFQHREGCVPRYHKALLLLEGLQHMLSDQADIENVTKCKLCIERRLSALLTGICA

UniProt Q92918 = target: UniProt Q92918
Chain of UniProt Q92918 (Q92918 whole entry, looked up): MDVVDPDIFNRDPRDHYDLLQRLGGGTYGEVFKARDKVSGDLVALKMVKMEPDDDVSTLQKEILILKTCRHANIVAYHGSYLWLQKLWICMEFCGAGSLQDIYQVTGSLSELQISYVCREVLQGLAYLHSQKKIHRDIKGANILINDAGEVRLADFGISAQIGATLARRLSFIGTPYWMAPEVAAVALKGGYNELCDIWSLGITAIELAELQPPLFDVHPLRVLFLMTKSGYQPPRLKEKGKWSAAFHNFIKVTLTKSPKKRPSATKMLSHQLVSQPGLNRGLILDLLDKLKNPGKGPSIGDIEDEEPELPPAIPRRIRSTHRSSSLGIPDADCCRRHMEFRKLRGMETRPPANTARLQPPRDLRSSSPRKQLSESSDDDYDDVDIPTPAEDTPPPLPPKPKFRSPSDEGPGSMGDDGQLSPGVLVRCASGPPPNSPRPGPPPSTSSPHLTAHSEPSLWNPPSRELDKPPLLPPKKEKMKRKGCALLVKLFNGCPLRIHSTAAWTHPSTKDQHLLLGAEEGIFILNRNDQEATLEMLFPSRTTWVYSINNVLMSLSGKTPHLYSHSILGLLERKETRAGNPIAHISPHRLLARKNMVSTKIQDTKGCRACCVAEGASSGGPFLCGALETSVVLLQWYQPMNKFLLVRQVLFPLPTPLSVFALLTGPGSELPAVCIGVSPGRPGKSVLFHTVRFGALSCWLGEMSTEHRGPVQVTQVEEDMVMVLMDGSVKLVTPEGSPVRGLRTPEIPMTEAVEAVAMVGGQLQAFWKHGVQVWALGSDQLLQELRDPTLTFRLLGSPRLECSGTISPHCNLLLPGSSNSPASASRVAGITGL

UniProt Q15418 = target: UniProt Q15418
Chain of UniProt Q15418 (Q15418 whole entry): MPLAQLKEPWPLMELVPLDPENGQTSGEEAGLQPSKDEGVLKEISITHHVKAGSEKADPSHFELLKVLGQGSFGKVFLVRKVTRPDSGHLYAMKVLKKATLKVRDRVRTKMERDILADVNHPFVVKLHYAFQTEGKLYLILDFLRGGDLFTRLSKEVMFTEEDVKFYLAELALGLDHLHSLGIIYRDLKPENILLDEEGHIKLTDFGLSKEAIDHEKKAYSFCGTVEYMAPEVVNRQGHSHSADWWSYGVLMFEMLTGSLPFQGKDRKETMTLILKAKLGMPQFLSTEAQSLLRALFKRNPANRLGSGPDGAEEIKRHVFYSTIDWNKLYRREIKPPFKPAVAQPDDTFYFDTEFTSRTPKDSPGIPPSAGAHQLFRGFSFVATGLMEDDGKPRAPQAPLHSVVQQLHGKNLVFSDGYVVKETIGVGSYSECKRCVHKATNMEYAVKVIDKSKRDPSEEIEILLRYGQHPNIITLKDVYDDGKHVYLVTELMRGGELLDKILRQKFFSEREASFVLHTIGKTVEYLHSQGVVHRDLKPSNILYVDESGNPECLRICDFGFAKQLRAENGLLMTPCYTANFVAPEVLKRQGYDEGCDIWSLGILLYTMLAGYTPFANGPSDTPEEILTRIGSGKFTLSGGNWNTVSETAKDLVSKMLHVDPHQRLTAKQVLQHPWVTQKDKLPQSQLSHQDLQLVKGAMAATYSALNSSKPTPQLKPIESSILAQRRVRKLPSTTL

LATS1 = target: T2, LATS1 (UniProt O95835)
T2 sequence (whole entry): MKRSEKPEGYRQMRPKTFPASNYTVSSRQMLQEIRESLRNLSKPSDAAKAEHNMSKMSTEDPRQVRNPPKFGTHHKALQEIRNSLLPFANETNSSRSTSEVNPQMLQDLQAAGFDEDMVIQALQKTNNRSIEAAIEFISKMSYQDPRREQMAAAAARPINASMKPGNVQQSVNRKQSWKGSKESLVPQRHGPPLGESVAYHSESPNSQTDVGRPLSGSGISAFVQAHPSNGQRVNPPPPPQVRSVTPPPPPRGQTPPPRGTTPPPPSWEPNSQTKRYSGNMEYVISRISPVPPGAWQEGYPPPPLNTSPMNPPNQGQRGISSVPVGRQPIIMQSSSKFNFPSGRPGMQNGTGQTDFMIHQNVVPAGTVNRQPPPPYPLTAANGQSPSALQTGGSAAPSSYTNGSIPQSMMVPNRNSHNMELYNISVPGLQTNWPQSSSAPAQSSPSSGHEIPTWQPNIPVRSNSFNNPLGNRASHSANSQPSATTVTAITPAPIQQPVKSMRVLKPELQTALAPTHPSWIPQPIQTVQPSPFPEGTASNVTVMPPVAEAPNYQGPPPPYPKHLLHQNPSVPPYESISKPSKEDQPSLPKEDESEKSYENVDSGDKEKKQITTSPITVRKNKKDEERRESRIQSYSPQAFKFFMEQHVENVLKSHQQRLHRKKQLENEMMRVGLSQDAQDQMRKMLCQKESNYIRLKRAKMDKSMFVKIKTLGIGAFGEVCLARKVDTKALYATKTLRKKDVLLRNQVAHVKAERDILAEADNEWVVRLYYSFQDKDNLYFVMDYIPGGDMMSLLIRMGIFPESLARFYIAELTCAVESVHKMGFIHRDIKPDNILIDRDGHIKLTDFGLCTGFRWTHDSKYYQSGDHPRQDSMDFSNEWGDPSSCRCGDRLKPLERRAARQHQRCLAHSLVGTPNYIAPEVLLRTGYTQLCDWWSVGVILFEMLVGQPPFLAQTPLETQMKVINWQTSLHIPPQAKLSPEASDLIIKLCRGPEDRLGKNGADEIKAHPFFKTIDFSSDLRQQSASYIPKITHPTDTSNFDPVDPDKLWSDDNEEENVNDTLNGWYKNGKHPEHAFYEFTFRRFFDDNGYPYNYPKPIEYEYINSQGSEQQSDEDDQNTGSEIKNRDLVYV

SRC = SRC (UniProt P12931)
Chain of SRC (P12931 whole entry, looked up): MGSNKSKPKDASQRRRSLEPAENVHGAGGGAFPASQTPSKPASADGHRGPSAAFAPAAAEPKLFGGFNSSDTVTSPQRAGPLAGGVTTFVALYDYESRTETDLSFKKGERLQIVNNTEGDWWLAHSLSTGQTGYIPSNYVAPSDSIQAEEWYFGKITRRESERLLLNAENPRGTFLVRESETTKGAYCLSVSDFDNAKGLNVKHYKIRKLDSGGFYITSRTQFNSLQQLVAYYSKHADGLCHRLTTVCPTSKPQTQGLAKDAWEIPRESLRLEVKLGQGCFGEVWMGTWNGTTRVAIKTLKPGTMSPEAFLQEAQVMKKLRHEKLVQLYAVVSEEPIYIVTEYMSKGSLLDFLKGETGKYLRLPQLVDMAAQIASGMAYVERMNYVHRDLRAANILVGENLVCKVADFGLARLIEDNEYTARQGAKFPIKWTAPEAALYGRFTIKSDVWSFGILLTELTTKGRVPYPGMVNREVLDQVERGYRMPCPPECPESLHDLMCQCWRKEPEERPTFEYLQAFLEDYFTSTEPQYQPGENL

UniProt O75582 = target: UniProt O75582
Chain of UniProt O75582 (O75582 whole entry, looked up): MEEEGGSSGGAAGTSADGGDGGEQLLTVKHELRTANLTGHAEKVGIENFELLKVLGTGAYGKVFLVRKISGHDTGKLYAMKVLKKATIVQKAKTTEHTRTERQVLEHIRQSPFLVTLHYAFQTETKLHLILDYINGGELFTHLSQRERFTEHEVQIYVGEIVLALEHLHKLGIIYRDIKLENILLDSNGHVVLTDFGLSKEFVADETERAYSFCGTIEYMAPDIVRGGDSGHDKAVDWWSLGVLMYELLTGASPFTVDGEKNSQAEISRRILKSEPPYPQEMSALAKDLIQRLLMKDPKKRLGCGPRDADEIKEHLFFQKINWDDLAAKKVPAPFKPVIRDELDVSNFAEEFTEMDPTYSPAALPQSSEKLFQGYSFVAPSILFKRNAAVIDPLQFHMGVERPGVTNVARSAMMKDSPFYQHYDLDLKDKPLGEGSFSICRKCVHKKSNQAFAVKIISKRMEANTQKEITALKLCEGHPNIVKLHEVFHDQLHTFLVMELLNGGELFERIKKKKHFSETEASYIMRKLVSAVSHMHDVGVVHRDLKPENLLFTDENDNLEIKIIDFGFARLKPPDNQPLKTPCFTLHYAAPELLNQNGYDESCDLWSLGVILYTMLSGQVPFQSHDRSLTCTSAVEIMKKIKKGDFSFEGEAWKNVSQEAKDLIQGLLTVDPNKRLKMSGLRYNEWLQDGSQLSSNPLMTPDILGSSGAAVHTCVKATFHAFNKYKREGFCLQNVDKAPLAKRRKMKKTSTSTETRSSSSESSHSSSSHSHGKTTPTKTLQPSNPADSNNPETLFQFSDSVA

UniProt O94768 = target: T3, UniProt O94768
T3 sequence (whole entry): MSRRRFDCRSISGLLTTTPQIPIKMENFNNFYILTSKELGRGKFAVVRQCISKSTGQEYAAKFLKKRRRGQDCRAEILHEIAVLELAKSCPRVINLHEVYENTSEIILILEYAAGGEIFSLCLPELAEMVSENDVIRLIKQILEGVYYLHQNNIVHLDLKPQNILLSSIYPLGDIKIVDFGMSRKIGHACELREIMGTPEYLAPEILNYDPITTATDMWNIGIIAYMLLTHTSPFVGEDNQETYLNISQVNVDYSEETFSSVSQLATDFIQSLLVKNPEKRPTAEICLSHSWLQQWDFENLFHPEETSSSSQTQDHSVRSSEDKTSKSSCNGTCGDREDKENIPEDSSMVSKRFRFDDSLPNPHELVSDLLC

UniProt P19525 = target: UniProt P19525
Chain of UniProt P19525 (P19525 whole entry): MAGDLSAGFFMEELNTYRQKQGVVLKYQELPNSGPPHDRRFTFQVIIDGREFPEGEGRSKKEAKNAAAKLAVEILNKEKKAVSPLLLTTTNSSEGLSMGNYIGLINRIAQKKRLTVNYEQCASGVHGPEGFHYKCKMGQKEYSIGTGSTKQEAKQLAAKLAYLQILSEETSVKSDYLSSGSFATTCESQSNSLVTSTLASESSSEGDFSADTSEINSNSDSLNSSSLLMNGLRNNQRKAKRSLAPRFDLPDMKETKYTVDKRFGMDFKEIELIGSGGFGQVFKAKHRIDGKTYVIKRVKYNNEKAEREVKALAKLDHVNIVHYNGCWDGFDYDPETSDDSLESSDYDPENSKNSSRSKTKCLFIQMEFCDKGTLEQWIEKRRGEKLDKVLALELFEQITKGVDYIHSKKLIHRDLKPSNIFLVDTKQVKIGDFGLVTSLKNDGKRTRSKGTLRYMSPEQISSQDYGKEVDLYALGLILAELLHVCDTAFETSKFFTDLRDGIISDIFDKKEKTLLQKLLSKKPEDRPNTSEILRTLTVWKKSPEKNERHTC

Chain of CAMKK2 (Q96RR4 whole entry, looked up): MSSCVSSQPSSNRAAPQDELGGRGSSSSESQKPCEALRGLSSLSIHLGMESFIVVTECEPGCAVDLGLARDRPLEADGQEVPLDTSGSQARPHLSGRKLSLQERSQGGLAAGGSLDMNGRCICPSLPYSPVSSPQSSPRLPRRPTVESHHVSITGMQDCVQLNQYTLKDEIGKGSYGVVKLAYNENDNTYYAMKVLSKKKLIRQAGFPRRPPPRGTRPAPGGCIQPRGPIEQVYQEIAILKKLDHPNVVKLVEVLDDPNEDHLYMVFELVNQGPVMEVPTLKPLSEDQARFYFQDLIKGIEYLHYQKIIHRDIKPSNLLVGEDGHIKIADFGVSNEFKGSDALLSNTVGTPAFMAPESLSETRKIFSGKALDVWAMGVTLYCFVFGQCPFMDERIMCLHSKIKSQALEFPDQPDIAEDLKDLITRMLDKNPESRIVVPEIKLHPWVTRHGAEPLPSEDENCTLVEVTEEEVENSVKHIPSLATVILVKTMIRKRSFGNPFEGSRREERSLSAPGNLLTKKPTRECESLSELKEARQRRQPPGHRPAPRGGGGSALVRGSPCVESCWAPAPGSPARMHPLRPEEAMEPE

CCc1cnn2c(NCc3ccc[n+]([O-])c3)cc(N3CCCC[C@H]3CCO)nc12 [dinaciclib]
pIC50 (HIPK3): < 4.52 | pIC50 (CAMKK2): 5.245 ± 0.035 | pIC50 (ULK1): < 4.52 | pIC50 (UniProt Q92918): < 4.52 | pIC50 (UniProt Q15418): < 4.52 | pIC50 (LATS1): < 4.52 | pIC50 (SRC): < 4.52 | pIC50 (UniProt O75582): < 4.52 | pIC50 (UniProt O94768): < 4.52 | pIC50 (UniProt P19525): < 4.52
